Patent EP3919042A1, “COMPOSITION WITH SILANOL, ETHANOL AND WATER FOR GLOBAL DI[…]” (Sil'Innov scrl, priority 2020, dated 2021)

Experiment: stability of MMST in water without stabilizers
Format: physicochemical
Conditions: stability declines at higher concentrations
Protocol: In a preferred embodiment of a composition according to the first aspect of the invention, the composition comprises monomethylsilanetriol (MMST). Monomethylsilanetriol (MMST, MeSiOH3 or Si(OH)3CH3) is an organosilanol. […] This organosilanol is highly bioavailable. […] MMST can advantageously be used without stabilizers in silicon equivalent concentrations up to 300 mg/l. The stability of MMST is dependent on concentration and declines at higher concentrations. The stability can further be enhanced by the use of stabilizing agents. In a preferred embodiment the stabilizing agent is based on phenol or polyphenol as described above. The same reasoning applies, mutatis mutandis, with respect to stabilizing effect on the free hydroxyl groups.

SMILES: C[Si](O)(O)O [MMST, monomethylsilanetriol]
- silicon equivalent concentration usable without stabilizers: up to 300 mg/l
